In series [1] the test system is HIF-HRE transcriptional activity in SKN:HRE-MLuc cells (reflects FIH-1 inhibition). Briefly: HIF activity under hypoxia, HRE-MLuc luciferase reporter assay. The settings on record: for HIF activity (HRE-MLuc reporter), result in words: hypoxic conditions (3% O2), 24 h, reference compounds at 100 μM; for activation at 100 µM / minimal effective concentration: Homo sapiens, SKN:HRE-MLuc cells, 3% O2, 24 h; for activation at 100 µM: read-out: 100 μM Activity (RLU intensity at 100 μM stimulation compared with the positive control DMOG); for minimal effective concentration: doses 100, 25, 6.3, 1.6 μM, DMOG 100 μM as positive control, read-out: 25% Activity (lower dose limit showing 25% of the RLU intensity of the positive control DMOG). The format is cell-based, human. On the procedure: To evaluate HIF transactivation following FIH-1 inhibition […], we employed a luciferase reporter assay system in the human neuroblastoma cell line SK-N-BE(2)c. […] Hereafter these HRE reporter cells were designated SKN:HRE-MLuc cells.
SKN:HRE-MLuc (4 × 10^4) were incubated for 24 h on a 96 well culture plate. The medium was replaced with complete media and the test compounds (100, 25, 6.3 and 1.6 μM). DMSO (0.1%) was used as a vehicle control, DMOG (100 μM) and FG4592 (100 μM) were used as a PHDs or FIH-1 inhibitor. The cells were incubated for 24 h under a humidified atmosphere of 5% CO2 and 3% O2 at 37 °C. After incubation, the MLuc activity in culture media was measured with luciferase substrate (Takara, Shiga, Japan) by LB960 luminometer (Berthold, Wildbad, Germany). The HIF activity was calculated as the MLuc intensity, based on the vehicle and positive controls. The lower limit dose out of 100 μM, 25 μM, 6.3 μM, 1.6 μM was listed in Table 1 and Table 2, where 25% RLU intensity was measured using DMOG as a positive control.

Series [2] concerns HIF-HRE transcriptional activity in SKN:HRE-MLuc cells (PHD inhibition). Kind of series: HIF activity under normoxia, HRE-MLuc luciferase reporter assay. Format: cell-based, human. The settings on record: normoxic conditions, 100 μM, 24 h. From the text: We next measured HIF transactivity of FIH-1 inhibitors under normoxic conditions to confirm whether these inhibitors stabilized HIF via inhibiting PHD. Under normoxic conditions, inhibition of PHD dramatically activated HRE reporter. In contrast, when PHD was inhibited under hypoxic conditions, the rate of activation of the HRE reporter was low because hypoxia already partially activated the HRE reporter. The compounds showing HIF activation under hypoxic conditions (compounds 7, 9–11, 15–18, 28, 30, and 38) were evaluated by the luciferase assays in SKN:HRE-MLuc cells under normoxic conditions (Figure 6).
SKN:HRE-MLuc (4 × 10^4) were incubated for 24 h on a 96 well culture plate. The medium was replaced with complete media and the tested compounds (100 μM). DMSO (0.1%) was used as a negative control, and DMOG (100 μM) was used as a positive control. The cells were incubated for 24 h under a humidified atmosphere of 5% CO2 at 37 °C. After incubation, the MLuc activity in culture media was measured with the method descried above.
In general terms: Reporter assays use an easily measured gene product as a stand-in for the process of interest.

For a further series, the system named is SKN:HRE-MLuc cells. Kind of series: MTS assay (cellular toxicity). Format: cell-based, human. The settings on record: for IC50: Homo sapiens, MTS assay. The text has this:
Next, we evaluated the activation of HIF by furan- and thiophene-2-carbonyl amino acid derivatives using the evaluation methods described above. Simultaneously, we investigated cellular toxicity for those derivatives with a 3-(4,5-dimethylthiazol-2-yl)-5-(3-carboxymethoxyphenyl)-2-(4-sulfophenyl)-2H-tetrazolium (MTS) assay. To indicate cellular membrane permeability, the partition coefficients, which are frequently represented by calculated logP (clogP) are listed in Table 1 and Table 2.
Cellular toxicity was measured using the CellTiter 96® Aqueous One Solution Cell Proliferation Assay kit (Promega, Madison, WI, USA). The cells were stimulated with each compound and treated with the CellTiter solution. After incubation for 3 h, the absorbance of the solutions at 492 nm was measured by Multiskan FC (Thermo Fisher Scientific, Waltham, MS, USA). As a negative control, wells with culture media were used. Wells treated with DMSO (0.1%) were used as a positive control. The IC50 values were determined using these controls.
(Formazan colour is commonly taken as a measure of viable cells.)

Series [3] concerns CA9 mRNA in SK-N-BE(2)c cells. Kind of series: Quantitative RT-PCR of HIF target gene CA9. The format is cell-based, human. The settings on record: 100 μM, 3% O2, SK-N-BE(2)c cells. On the procedure:
(§1) To confirm transactivation of HIF by our optimized compounds, the expression of HIF target genes was analyzed with quantitative polymerase chain reaction (PCR) in SK-N-BE(2)c cells. We attempted to analyze several HIF target genes including CA9, VEGF-α, EPO, and PHD3, under 3% O2 conditions.
(§2) Total RNA was extracted from cells using ISOGEN (Nippon Gene, Tokyo, Japan). cDNA syntheses were performed using random hexamer primers and SuperScript II Reverse Transcriptase (Thermo Fisher Scientific) following the manufacturer’s instructions. Quantitative reverse transcription polymerase-chain reaction (RT-PCR) analysis was performed as follows: amplification was done in an initial denaturing step at 96 °C for 2 min, followed by 35 cycles of PCR (96 °C for 1 min, 57 °C for 30 s, 72 °C for 30 s) using recombinant Taq polymerase (Takara, Otsu, Japan) with the respective primer pairs. For human carbonic anhydrase IX (CA9), 5′-CCTGGCTGCTGGTGACATCC-3′ and 5′-AAGGAAGTGGCATAATGAGC-3′. […] Data were analyzed using the comparative Ct method as means of relative quantification, and were normalized to an endogenous reference (β-actin) and relative to a calibrator (normalized Ct value obtained from cells treated with vehicle only). Data were expressed as 2^−ΔΔCt.

The subject of series [4] is HIF-1α mRNA in SK-N-BE(2)c cells. Briefly: Quantitative RT-PCR of HIF-1α mRNA. The format is cell-based, human. The settings on record: 100 μM, 3% O2, SK-N-BE(2)c cells. On the procedure: as §1, §2
In series [5] the test system is HIF-HRE transcriptional activity in SKN:HRE-MLuc cells (reflects FIH-1 inhibition). Kind of series: HIF activity under hypoxia, HRE-MLuc luciferase reporter assay. Format: cell-based, human. The settings on record: 100 μM; normoxic or hypoxic (3% O2), control or FIH-1 siRNA transfectants, Figure 3c (A vs E, F, G, H).

Entries after “also recorded” stand apart in the source; their conditions may differ. Some results are limits rather than exact numbers.

As for `Cc1nc(C(=O)NCC(=O)O)c(O)c2ccc(Oc3ccccc3)cc12` [FG4592, reference compound], the “HIF activity (HRE-MLuc reporter), result in words” value (“HIF activity (HRE-MLuc reporter)” for short) in series [1] was “only slightly stabilized HIF”. Further, the “HIF transactivation (HRE-MLuc reporter), result in words” value (shortened to “HIF transactivation (HRE-MLuc reporter)”) in series [2] was “stabilized HIF compared with vehicle-treated cells; also recorded: showed significant HRE reporter activity”.
Consider `COC(=O)[C@H](Cc1c[nH]c2ccccc12)NC(=O)c1cc2ccccc2o1` [Compound 38, (S)-Methyl (benzofuran-2-carbonyl)tryptophanate], for which, in series [1], the activation at 100 µM worked out at 25%; the minimal effective concentration stood at 25 µM; the “HIF activity (HRE-MLuc reporter)” value was “stabilized HIF and transactivated the HRE-driven MLuc reporter”. Further, the half-inhibitory concentration (IC50) (as a rule, the midpoint of a concentration-inhibition curve) in the series on SKN:HRE-MLuc cells was over 100 µM. In addition, in series [2], the “HIF transactivation (HRE-MLuc reporter)” value is on record as “did not elicit any HIF transactivation”.
For the molecule `COC(=O)[C@H](Cc1c[nH]c2ccccc12)NC(=O)c1cc(-c2ccccc2)cs1` [Compound 28, (S)-Methyl (4-phenylthiophene-2-carbonyl)tryptophanate], the melting point – broadly, the temperature, or range, at which the solid turns liquid – lay in the range of 150 to 152 °C. Further, in series [1], the activation at 100 µM was determined as 0%; the minimal effective concentration turned out to be 25 µM; the “HIF activity (HRE-MLuc reporter)” value is “stabilized HIF and transactivated the HRE-driven MLuc reporter”. Besides, the IC50 with SKN:HRE-MLuc cells was over 100 µM. In series [2], the “HIF transactivation (HRE-MLuc reporter)” value is given as “did not elicit any HIF transactivation”.
For `COC(=O)[C@H](Cc1ccccc1)NC(=O)c1ccc(C)o1` [Compound 7, (S)-Methyl (5-methylfuran-2-carbonyl)phenylalaninate], in series [1], the activation at 100 µM was found to be 22%; the minimal effective concentration is 25 µM; the “HIF activity (HRE-MLuc reporter)” value is “stabilized HIF and transactivated the HRE-driven MLuc reporter”. In the series on SKN:HRE-MLuc cells, this molecule registered an IC50 of over 100 µM. Also, in series [2], the “HIF transactivation (HRE-MLuc reporter)” value is on record as “did not elicit any HIF transactivation”.
On to `COC(=O)[C@H](Cc1c[nH]c2ccccc12)NC(=O)c1ccc(C)o1` [Compound 9, (S)-Methyl (5-methylfuran-2-carbonyl)tryptophanate], for which, in series [1], the activation at 100 µM was determined as 22% and the minimal effective concentration worked out at 25 µM. In the series with SKN:HRE-MLuc cells, this molecule showed a 50% inhibitory concentration (IC50) of over 100 µM. Besides, the “CA9 mRNA expression, result in words” value in series [3] was “significantly elevated”. In series [4], the “HIF-1α mRNA level, result in words” value is “slightly suppressed by DMOG treatment but not by treatment with compound 9”.
As to `COC(=O)CNC(=O)C(=O)OC` [DMOG, dimethyloxalyl glycine, reference compound], the “HIF stabilization activity (HRE-MLuc reporter), result in words” value in series [5] was “higher HIF stabilization activity”. Moreover, the “HIF-1α mRNA level, result in words” value in series [4] is “slightly suppressed”.
In turn, `COC(=O)[C@@H](Cc1c[nH]c2ccccc12)NC(=O)c1cc(-c2ccccc2)cs1` [Compound 29, (R)-Methyl (4-phenylthiophene-2-carbonyl)tryptophanate] yielded a melting point of 145 to 149 °C. Also, in series [1], the activation at 100 µM turned out to be 0%. In addition, the IC50 in the series with SKN:HRE-MLuc cells was over 100 µM.
As for `CCOC(=O)[C@H](Cc1ccccc1)NC(=O)c1cc(-c2ccccc2)cs1` [Compound 27, (S)-Ethyl (4-phenylthiophene-2-carbonyl)phenylalaninate], the melting point lay within 94 to 96 °C. Besides, the activation at 100 µM in series [1] was 2%. The molecule also came in with a 50% inhibitory concentration (IC50) in the series on SKN:HRE-MLuc cells of over 100 µM.
Regarding `COC(=O)CNC(=O)c1cc(-c2ccccc2)cs1` [Compound 26, Methyl (4-phenylthiophene-2-carbonyl)glycinate], the melting point lay within 93 to 96 °C. Further, the activation at 100 µM in series [1] is 0%. Besides, the half-maximal inhibitory concentration (IC50) in the series on SKN:HRE-MLuc cells is over 100 µM.
In turn, `COC(=O)[C@H](Cc1ccc(O)cc1)NC(=O)c1cc(-c2ccccc2)cs1` [Compound 30, (S)-Methyl (4-phenylthiophene-2-carbonyl)tyrosinate] yielded a melting point of 176 to 178 °C. For the same molecule, in series [1], the activation at 100 µM is 0%; the minimal effective concentration was determined as 6.3 µM; the “HIF activity (HRE-MLuc reporter)” value was “stabilized HIF and transactivated the HRE-driven MLuc reporter”. Also, in the series on SKN:HRE-MLuc cells, the “Cellular toxicity in the MTS assays, result in words” value is “showed cellular toxicity” and 75 µM corresponded to half-maximal inhibition (IC50). Further, the “HIF transactivation (HRE-MLuc reporter)” value in series [2] is listed as “did not elicit any HIF transactivation”.
For `COC(=O)CNC(=O)c1ccc(-c2ccc(-c3ccccc3)cc2)s1` [Compound 31, Methyl (5-((1,1′-biphenyl)-4-yl)thiophene-2-carbonyl)glycinate], the melting point lay within 183 to 185 °C. In series [1], the activation at 100 µM is 0%. Further, the IC50 in the series with SKN:HRE-MLuc cells is over 100 µM.
On to `Cc1ccc(C(=O)NCC(=O)O)s1` [Compound 11, (5-Methylthiophene-2-carbonyl)glycine], for which, in series [1], the activation at 100 µM is 23% and the minimal effective concentration stood at 25 µM. Further, the IC50 in the series on SKN:HRE-MLuc cells is over 100 µM.
Consider `COC(=O)[C@H](Cc1c[nH]c2ccccc12)NC(=O)c1ccco1` [Compound 3, (S)-Methyl (furan-2-carbonyl)tryptophanate], for which the activation at 100 µM in series [1] is 0%. The molecule also came in with a half-inhibitory concentration (IC50) with SKN:HRE-MLuc cells of over 100 µM.
`COC(=O)[C@@H](Cc1c[nH]c2ccccc12)NC(=O)c1ccc(C)o1` [Compound 10, (R)-Methyl (5-methylfuran-2-carbonyl)tryptophanate]: in series [1], the activation at 100 µM came out at 0% and the minimal effective concentration was found to be 6.3 µM. In the series with SKN:HRE-MLuc cells, this molecule came in with an IC50 of over 100 µM.
Turning to `CCOC(=O)[C@H](Cc1ccccc1)NC(=O)c1cc2ccccc2o1` [Compound 37, (S)-Ethyl (benzofuran-2-carbonyl)phenylalaninate], in series [1], the activation at 100 µM was found to be 0%. The IC50 in the series with SKN:HRE-MLuc cells is over 100 µM.
